According to ChEMBL document CHEMBL1201862, “PubChem BioAssay data set” (2004):
Calls of active or inactive are those of the source.

Assays:
[1] = system: P388/ADR; assay: cells; type: functional; conditions: Mus musculus
[2] = system: SN12K1; assay: cells; type: functional; conditions: Homo sapiens
[3] = system: P388; assay: cells; type: functional; conditions: Mus musculus
[4] = non-specific cell cytotoxicity, dose response, cytotoxicity control for PAX8 inhibitor project, plate reader, dry powder samples (AID 743021); type: functional, cell-based
[5] = HeLa 2N DNA content increase, dose response, cell-based, IC50 (AID 1117349); type: functional
[6] = Concentration-dependent survival of SW480 colon cancer line, luminescence detection with CellTiter-Glo, half-maximal inhibitory concentration (AID 1117338); type: functional
[7] = RKO cell viability reduction, dose response, CellTiter-Glo luminescence (AID 1117322); type: functional
[8] = cytotoxicity toward HCT116 cells – cell-based, CellTiter-Glo luminescence, IC50, dose response (AID 1117332); type: functional; conditions: HCT-116
[9] = SNU-C1 cell viability reduction, dose response, CellTiter-Glo luminescence (AID 1117323); type: functional, cell-based
[10] = cytotoxicity toward Colo320 cells – cell-based, CellTiter-Glo luminescence, IC50, dose response (AID 1117334); type: functional; conditions: COLO 320
[11] = HeLa 4N DNA content increase, dose response, cell-based, IC50 (AID 1117351); type: functional
[12] = cytotoxicity toward HT-29 cells – cell-based, CellTiter-Glo luminescence, IC50, dose response (AID 1117330); type: functional
[13] = CellTiter-Glo luminescent dose response of DLD-1 viability loss (AID 1117352); type: functional
[14] = HCT116 cell viability decrease, GSK3B pretreatment – CellTiter-Glo, IC50, dose response (AID 1117339); type: functional; conditions: HCT-116
[15] = P. falciparum 3D7-ScDHODH growth inhibitors, dose response, SYBR Green, dry powder samples (AID 1159570); type: functional, cell-based;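 note: parasite growth measured after 72 hours of compound exposure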
[16] = HepG2 cell cytotoxicity, dose response, cytotoxicity control, plate reader, dry powder samples (AID 1159569); type: functional, cell-based;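 note: inhibitor potency with signal falling toward the positive control level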
[17] = P. falciparum Dd2 growth inhibitors, dose response, SYBR Green, cherry-picked samples (AID 1159567); type: functional, cell-based
[18] = P. falciparum Dd2 growth inhibitors, dose response, SYBR Green, dry powder samples (AID 1159566); type: functional, cell-based;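 note: potency for growth inhibition with lower SYBR green DNA signal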
[19] = HepG2 cell cytotoxicity, dose response, cytotoxicity control, cherry-picked samples (AID 1159577); type: functional, cell-based
[20] = P. falciparum ATP4 D1247Y mutant growth inhibitors, dose response, NITD609-resistant line, SYBR Green, dry powder (AID 1159571); type: functional, cell-based;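 note: parasites synchronized at ring stage by sorbitol before testing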
[21] = target: RNA-editing ligase 1, mitochondrial (Trypanosoma brucei brucei, UniProt P86926); assay: TbREL1 ligase inhibitors, dose response, biochemical, fluorescence, Trypanosoma brucei (AID 1117295); type: functional
RNA-editing ligase 1, mitochondrial, sequence (P86926 whole entry): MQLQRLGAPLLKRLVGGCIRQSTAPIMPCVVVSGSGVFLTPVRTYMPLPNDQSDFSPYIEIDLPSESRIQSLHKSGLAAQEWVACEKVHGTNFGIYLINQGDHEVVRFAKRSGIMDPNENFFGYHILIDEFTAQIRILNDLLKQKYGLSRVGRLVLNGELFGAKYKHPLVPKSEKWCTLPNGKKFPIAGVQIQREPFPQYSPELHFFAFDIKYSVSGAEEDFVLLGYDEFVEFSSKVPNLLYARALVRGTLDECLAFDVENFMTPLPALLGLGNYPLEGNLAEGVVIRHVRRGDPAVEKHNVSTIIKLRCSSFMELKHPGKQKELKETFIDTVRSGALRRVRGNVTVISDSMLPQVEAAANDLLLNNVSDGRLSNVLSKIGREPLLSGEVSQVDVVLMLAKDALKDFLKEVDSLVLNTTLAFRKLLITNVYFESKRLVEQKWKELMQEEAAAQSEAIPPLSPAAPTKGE

[22] = growth suppression of PTEN-null colon cells, dose response, cell-based, HCT116 PTEN knockout (AID 1047); type: functional;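 note: HCT116 colon tumor cells with PTEN knocked out; cells exposed to compound for 60 hours before readout; potency for loss of cell viability measured by luminescence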
[23] = growth suppression of beta-catenin-knockout colon cells, dose response, cell-based, HCT116, human colon tumor (AID 1045); type: functional;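 note: HCT116 colon tumor cells with beta catenin knocked out; cells exposed to compound for 60 hours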
[24] = target: Induced myeloid leukemia cell differentiation protein Mcl-1 (Homo sapiens, UniProt Q07820); type: functional
Induced myeloid leukemia cell differentiation protein Mcl-1, sequence (Q07820 whole entry): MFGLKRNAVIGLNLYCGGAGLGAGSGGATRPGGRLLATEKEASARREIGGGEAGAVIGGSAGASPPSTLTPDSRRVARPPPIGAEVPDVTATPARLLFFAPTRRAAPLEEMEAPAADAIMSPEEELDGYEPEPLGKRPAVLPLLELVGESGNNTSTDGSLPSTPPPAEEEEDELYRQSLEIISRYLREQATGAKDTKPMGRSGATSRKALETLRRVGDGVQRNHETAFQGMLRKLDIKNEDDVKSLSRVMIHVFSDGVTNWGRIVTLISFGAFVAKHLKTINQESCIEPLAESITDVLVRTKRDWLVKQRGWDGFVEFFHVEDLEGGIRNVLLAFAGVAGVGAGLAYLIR

[25] = target: T1, Microphthalmia-associated transcription factor (Homo sapiens, UniProt O75030); assay: TRPM1 promoter luciferase signal decrease, dose response, MITF inhibitor project, cell-based, SK-MEL-5, cherry-picked, set 3 (AID 493073); type: functional
T1 sequence (O75030 whole entry): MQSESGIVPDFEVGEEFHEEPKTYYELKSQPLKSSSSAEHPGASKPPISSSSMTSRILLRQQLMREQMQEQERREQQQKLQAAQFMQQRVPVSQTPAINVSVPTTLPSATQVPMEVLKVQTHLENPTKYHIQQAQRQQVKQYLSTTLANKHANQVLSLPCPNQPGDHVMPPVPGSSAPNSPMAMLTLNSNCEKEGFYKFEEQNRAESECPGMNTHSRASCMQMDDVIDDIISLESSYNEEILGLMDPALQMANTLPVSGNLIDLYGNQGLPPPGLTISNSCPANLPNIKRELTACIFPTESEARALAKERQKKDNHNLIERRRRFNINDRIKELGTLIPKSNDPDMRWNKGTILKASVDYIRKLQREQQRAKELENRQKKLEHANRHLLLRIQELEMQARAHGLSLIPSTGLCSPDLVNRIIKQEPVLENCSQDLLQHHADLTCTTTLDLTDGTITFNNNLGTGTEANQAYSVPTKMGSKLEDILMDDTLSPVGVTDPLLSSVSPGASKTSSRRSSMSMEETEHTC

[26] = inhibitors of PGC1a acetylation in cells, dose response, cell-based, cherry-picked samples (AID 720514); type: functional;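 note: potency may reflect raised or lowered acetylation signal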
[27] = T. cruzi growth inhibition in host cells, dose response, cell-based, plate reader, dry powder, set 2 (AID 652275); type: functional
[28] = HepG2 cell cytotoxicity, dose response, cytotoxicity control, ATP luminescence, cherry-pick, activator set 2 (AID 1053143); type: functional, cell-based
[29] = target: T2, Oxysterols receptor LXR-beta (Homo sapiens, UniProt P55055); type: functional, cell-based;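 note: Cell-based luminescence dose-response assay of agonist activity at LXR, run as a confirmatory counterscreen to a daf-12 agonist screen; HEK293 cells with Gal4-LXR fusion and GAL4-driven luciferase reporter; agonist potency from rising luciferase signal of a Gal4-LXR reporter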
T2 sequence (P55055 whole entry): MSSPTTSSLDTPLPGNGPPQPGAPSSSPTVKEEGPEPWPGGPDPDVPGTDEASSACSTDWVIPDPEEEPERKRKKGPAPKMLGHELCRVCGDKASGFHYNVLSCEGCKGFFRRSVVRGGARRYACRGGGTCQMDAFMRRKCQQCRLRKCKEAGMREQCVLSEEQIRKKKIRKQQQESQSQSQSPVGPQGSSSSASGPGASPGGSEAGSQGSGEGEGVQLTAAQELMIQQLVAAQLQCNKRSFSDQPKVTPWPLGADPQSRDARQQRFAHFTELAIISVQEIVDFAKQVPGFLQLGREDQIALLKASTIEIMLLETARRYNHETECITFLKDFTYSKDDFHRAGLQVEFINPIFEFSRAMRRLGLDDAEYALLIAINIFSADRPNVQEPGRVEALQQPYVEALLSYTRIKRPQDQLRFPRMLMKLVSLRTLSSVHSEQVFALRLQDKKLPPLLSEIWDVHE

[30] = cells
[31] = THP-1 cell cytotoxicity, dose response, cytotoxicity control for Vif-APOBEC3G degradation inhibitor project, THP-1 cells (AID 1117359); type: functional; conditions: Human immunodeficiency virus 1, THP-1

Nc1nc2[nH]cnc2c(=S)[nH]1 [THIOGUANINE]
inactive: IC50 [5] > 10000 nM | IC50 [11] > 10000 nM
active: GI50 [1] 181 nM | GI50 [2] 281 nM | GI50 [3] 76.2 nM | AC50 [4] 1990 nM | IC50 [6] 402 nM | IC50 [7] 343 nM | IC50 [8] 139 nM | IC50 [9] 4400 nM | IC50 [10] 373 nM | IC50 [12] 49.3 nM | IC50 [13] 108 nM | IC50 [14] 163 nM

COc1cccc(CN2CCCCN3[C@H](CO)[C@@H](c4ccc(C#Cc5cccnc5)cc4)[C@H]3C2)c1
active: AC50 [15] 2040 nM | AC50 [16] 14000 nM | AC50 [17] 859 nM | AC50 [18] 560 nM | AC50 [19] 24000 nM | AC50 [20] 934 nM

COC(=O)C1=C(C)N(Cc2cccc(C(F)(F)F)c2)C(NCC2CC2)=NC1c1ccccc1C(F)(F)F (configuration not stated)
inactive: IC50 [21] > 96600 nM

C=CCn1c(C)cc(C(=O)Cn2ncc(Cl)c(Cl)c2=O)c1C
active: EC50 [22] 3080 nM | EC50 [23] 2120 nM | IC50 [24] 5140 nM | AC50 [25] 9970 nM | AC50 [26] 5680 nM

CC(=O)N1CCCCN2[C@@H](CO)[C@H](c3ccc(-c4cccc(C(=O)N(C)C)c4)cc3)[C@@H]2C1
active: AC50 [27] 4940 nM

Cc1ccc(-c2cnc3ccccc3n2)cc1C
active: AC50 [28] 26000 nM
inactive: EC50 [29] > 67600 nM | EC50 [30] > 67600 nM

CC(C)CC#Cc1ccc2c(c1)O[C@H](CN(C)Cc1ccccc1)[C@@H](C)CN([C@H](C)CO)S2(=O)=O
active: AC50 [26] 16400 nM

Cc1ccccc1S(=O)(=O)Cc1ccc(C(=O)NCCCN2CCC(C)CC2)o1
active: CC50 [31] > 40000 nM
